According to patent US20240325517A1, “COMPOSITIONS AND METHODS TARGETING FILAMENTOUS BACTERIOPHAGE” (THE UNIVERSITY OF MONTANA, priority 2020, published 2024):
Read-outs that look alike come from different tables or passages of the source. Where no end group is shown, it is not given here.

Key:
[1] = cited from earlier work
sheep red blood cells = settings: cited from earlier work
CoaBa1 = test: Total IgG ELISA, plate coated with CoaBa1 (Example 11); type: in vivo, C57/BL/6 mice; settings: for Total IgG ELISA plate coated with CoaBa1: 1 μg conjugate IM, with 1 μg Adj A where named, booster day 14, serum 14 days post-secondary; for cross-reactivity to CoaBa1 (in words): vaccination, Tables 16 and 17 cited in text
Experimental: (§1) Female C57/BL/6 mice aged 6-8 weeks old (8 per group) were vaccinated intramuscularly with 1 μg of CoaBa-CRM or […] of CoaBb-CRM conjugate in combination with […] dose of TLR 4 agonist Adjuvant A. A booster with 1 μg dose of Adjuvant A adjuvant combination with 1 μg of respective conjugate was administered 14 days post primary. ELISA data is from serum collected 14 days post-secondary vaccination boost. CoaBa1 within-clade cross reactive immunity against coaBa2 was determined. (Tables 15 and 16). Clade A CoaBa cross-reactive immunity against Clade B CoaBb epitope was determined. (Table 17).

CoaBa2 = test: Total IgG ELISA, plate coated with CoaBa2 (Example 11); type: in vivo, C57/BL/6 mice; settings: for Total IgG ELISA plate coated with CoaBa2: 1 μg conjugate IM, with 1 μg Adj A where named, booster day 14, serum 14 days post-secondary
Experimental: as §1

CoaBb1 = test: Total IgG ELISA, plate coated with CoaBb1 (Example 11); type: in vivo, C57/BL/6 mice; settings: 1 μg conjugate IM, with 1 μg Adj A where named; booster day 14; serum 14 days post-secondary
Experimental: as §1

CoaBa1 hapten = test: Adjuvant system for CoaB-CRM conjugate, total serum IgG ELISA (Example 9); type: in vivo, C57/BL/6 mice; settings: for Mean Log10 total serum IgG titer: booster day 14, serum 14 days post-secondary
Experimental: The lead CoaB vaccines consist of a peptide hapten conjugated to CRM197. To determine whether TLR7 and TLR4 adjuvants would provide a beneficial effect on antibody titres or provide a dose sparing effect, female C57/BL/6 mice aged 6-8 weeks old (10 per group) were vaccinated intramuscularly with 1 μg of CoaBa-CRM conjugate in combination with indicated dose of (Adjuvant B), a TLR 7/8 adjuvant, and or (Adjuvant A) a TLR4 adjuvant. A booster with respective dose of adjuvant combination with […] of CoaBa-CRM conjugate was administered 14 days post primary. ELISA data is from serum collected 14 days post-secondary vaccination boost.

CoaBa [2] = test: Anti-CoaBa IgG subtypes induced with TLR4 agonist, ELISA (Example 10); type: in vivo, C57/BL/6 mice; set-up: Mean total IgG / Mean IgG1 / Mean IgG2b: unit not given here; settings: for Mean IgG1 / Mean IgG2b / Mean total IgG: booster day 14, serum 14 days post-secondary
Experimental: Female C57/BL/6 mice aged 6-8 weeks old (5 per group) were vaccinated intramuscularly with […] of CoaBa-CRM conjugate in combination with indicated dose of TLR4 agonist Adjuvant A. A booster with respective dose of adjuvant combination with 1 μg of CoaBa-CRM conjugate was administered 14 days post primary. ELISA data are from serum collected 14 days postsecondary vaccination boost. (A) Total IgG, (B) IgG1, (C) IgG2a isotypes are shown.

CoaBa [3] = test: as above; type: in vivo, C57/BL/6 mice; set-up: unit not given here; settings: booster day 14, serum 14 days post-secondary
[4] = biological target: CoaBa (Pseudomonas aeruginosa filamentous (Pf) bacteriophage); test: anti-CoaBa serum ELISA; 14 days post boost; C57BL/6
[5] = 0.01 μg Adj A with 1 μg CoaBa-CRM conjugate IM
[6] = 0.1 μg Adj A with 1 μg CoaBa-CRM conjugate IM
[7] = 1 μg Adj A with 1 μg CoaBa-CRM conjugate IM
[8] = 0.0001 μg Adj A with 1 μg CoaBa-CRM conjugate IM
[9] = 0.001 μg Adj A with 1 μg CoaBa-CRM conjugate IM
[10] = 10 μg Adj A with 1 μg CoaBa-CRM conjugate IM

QS-17
critical micellar concentration ([1]; in phosphate buffered saline): 0.03 % (w/v)
critical micellar concentration ([1]; in water): 0.06 % (w/v)
concentrations causing hemolysis of sheep red blood cells (sheep red blood cells): ≥ 25000 ng/mL

CoaBa2: CoaBa2 hapten-CRM197 conjugate vaccine (GSVIDTSAVEAAITEGKGD; not fully specified)
Total IgG ELISA plate coated with CoaBa1 (CoaBa1): 0.50
cross-reactivity to CoaBa1 (in words) (CoaBa1): produced cross-reactivity to CoaBa1-CRM197
Total IgG ELISA plate coated with CoaBa2 (CoaBa2): 0.5

CoaBb1: CoaBb-CRM conjugate vaccine, subclade b1 (ADSLIDETTKEVLTQAGTDG; also: conjugated to CRM carrier, site not given here)
cross-reactivity to CoaBa1 (in words) (CoaBa1): did not produce cross-reactive immunity to clade A subtypes CoaBa1
Total IgG ELISA plate coated with CoaBb1 (CoaBb1): 0.5

CCCCCCCCCCC[C@H](CC(=O)NCCO[C@@H]1OC(CO)[C@@H](OS(=O)(=O)O)[C@H](NC(=O)C[C@@H](CCCCCCCCCCC)OC(=O)CCCCCCCCC)C1NC(=O)C[C@@H](CCCCCCCCCCC)OC(=O)CCCCCCCCC)OC(=O)CCCCCCCCC (stereo partly shown) [Adjuvant A]
Mean Log10 total serum IgG titer (CoaBa1 hapten; [5]): 3.74 Log10
Mean Log10 total serum IgG titer (CoaBa1 hapten; [6]): 4.55 Log10
Mean Log10 total serum IgG titer (CoaBa1 hapten; [7]): 5.12 Log10
antibody titers against the CoaBa1 hapten (in words) (CoaBa1 hapten; vaccine dose experiments with 1 μg CoaBa-CRM conjugate): produced the highest antibody titers against the CoaBa1 hapten
Mean IgG1 (CoaBa [2]; [8]): 0.95
Mean IgG2b (CoaBa [2]; [8]): 1.02
Mean total IgG (CoaBa [2]; [8]): 1.27
Mean IgG1 (CoaBa [2]; [9]): 1.86
Mean total IgG (CoaBa [2]; [9]): 2.38
Mean IgG1 (CoaBa [2]; [5]): 1.99
Mean total IgG (CoaBa [2]; [5]): 3.15
Mean IgG1 (CoaBa [2]; [6]): 2.45
Mean total IgG (CoaBa [2]; [6]): 4.00
Mean IgG1 (CoaBa [2]; [7]): 3.60
Mean IgG2b (CoaBa [2]; [7]): 4.31
Mean total IgG (CoaBa [2]; [7]): 4.19
Mean IgG1 (CoaBa [2]; [10]): 2.88
Mean total IgG (CoaBa [2]; [10]): 4.25
IgG subtype analysis (in words) (CoaBa [2]; adjuvanting CoaBa with Adjuvant A): elicited both IgG1 and IgG2b subclasses
Mean IgG2b (CoaBa [3]; [9]): 1.22
Mean IgG2b (CoaBa [3]; [5]): 2.45
Mean IgG2b (CoaBa [3]; [6]): 3.90
Mean IgG2b (CoaBa [3]; [10]): 3.31

QS-18
critical micellar concentration ([1]; in phosphate buffered saline): 0.02 % (w/v)
critical micellar concentration ([1]; in water): 0.04 % (w/v)

serum of naïve (unvaccinated) mice
Mean IgG1 [4]: 0.5
Mean IgG2b [4]: 0.5
Mean total IgG [4]: 0.5

QS-21
critical micellar concentration ([1]; in phosphate buffered saline): ~0.02 % (w/v)
critical micellar concentration ([1]; in water): about 0.03 % (w/v)
concentrations causing hemolysis of sheep red blood cells (sheep red blood cells): ≥ 25000 ng/mL

CoaBa1: CoaBa1 hapten-CRM197 conjugate vaccine (GVIDTSAVESAITDGQGD; not fully specified)
Total IgG ELISA plate coated with CoaBa1 (CoaBa1): 0.50
Total IgG ELISA plate coated with CoaBa2 (CoaBa2): 0.5
cross-reactivity to CoaBa2-CRM197 (in words) (CoaBa2; vaccination, Table 15 cited in text): produced cross-reactivity to CoaBa2-CRM197
Total IgG ELISA plate coated with CoaBb1 (CoaBb1): 0.5
